Drawing on ChEMBL document CHEMBL4421736, “INHIBITORS OF SARM1 NADase ACTIVITY AND USES THEREOF” (2018), this text covers inhibition and Activity for 40 molecules.

Holding throughout (type): cell-based
For test [1], the target named is T1, NAD(+) hydrolase SARM1 (Homo sapiens) (UniProt Q6SZW1).
T1 sequence (whole entry): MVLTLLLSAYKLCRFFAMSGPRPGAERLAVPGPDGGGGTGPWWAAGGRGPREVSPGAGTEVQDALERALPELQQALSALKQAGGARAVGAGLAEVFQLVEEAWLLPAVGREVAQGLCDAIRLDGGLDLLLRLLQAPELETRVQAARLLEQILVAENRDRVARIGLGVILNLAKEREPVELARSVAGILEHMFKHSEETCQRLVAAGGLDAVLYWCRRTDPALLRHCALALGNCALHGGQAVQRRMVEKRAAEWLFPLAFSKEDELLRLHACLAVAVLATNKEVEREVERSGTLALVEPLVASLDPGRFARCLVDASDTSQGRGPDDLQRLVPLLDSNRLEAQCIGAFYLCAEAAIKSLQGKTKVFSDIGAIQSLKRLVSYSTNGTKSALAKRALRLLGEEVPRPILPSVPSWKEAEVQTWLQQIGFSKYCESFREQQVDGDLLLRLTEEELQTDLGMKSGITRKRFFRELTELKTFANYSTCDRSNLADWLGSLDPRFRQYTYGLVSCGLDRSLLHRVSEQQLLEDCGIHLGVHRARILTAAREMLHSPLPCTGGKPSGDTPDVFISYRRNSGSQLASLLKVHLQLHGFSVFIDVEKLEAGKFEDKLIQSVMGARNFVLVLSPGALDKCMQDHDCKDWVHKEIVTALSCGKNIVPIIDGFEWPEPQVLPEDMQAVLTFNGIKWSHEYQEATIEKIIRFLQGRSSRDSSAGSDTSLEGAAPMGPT
The experiment in a line: Inhibition of StrepTag-tagged human SARM1 TIR (561 to 724 residues) expressed in HEK293T cells assessed as reduction in NADase activity at 5 uM in presence of NAD+ incubated for 60 mins by HPLC analysis.

Test [2] has as its target T1, NAD(+) hydrolase SARM1 (Homo sapiens). The experiment in a line: Substrate activity at StrepTag-tagged human SARM1 TIR (561 to 724 residues) expressed in HEK293T cells assessed as increase in NADase activity at 100 uM in presence of NAD+ incubated for 60 mins by HPLC analysis.
Test [3] shares this target. The test can be described thus: Substrate activity at StrepTag-tagged human SARM1 TIR (561 to 724 residues) expressed in HEK293T cells assessed as increase in NADase activity in presence of NAD+ incubated for 60 mins by HPLC analysis.
Test [4] has the same target. The test can be described thus: Inhibition of StrepTag-tagged human SARM1 TIR (561 to 724 residues) expressed in HEK293T cells assessed as reduction in NADase activity at 1 mM in presence of NAD+ incubated for 60 mins by HPLC analysis.
Test [5] deals with T2, NAD(+) hydrolase SARM1 (Mus musculus) (UniProt Q6PDS3).
T2 sequence (whole entry): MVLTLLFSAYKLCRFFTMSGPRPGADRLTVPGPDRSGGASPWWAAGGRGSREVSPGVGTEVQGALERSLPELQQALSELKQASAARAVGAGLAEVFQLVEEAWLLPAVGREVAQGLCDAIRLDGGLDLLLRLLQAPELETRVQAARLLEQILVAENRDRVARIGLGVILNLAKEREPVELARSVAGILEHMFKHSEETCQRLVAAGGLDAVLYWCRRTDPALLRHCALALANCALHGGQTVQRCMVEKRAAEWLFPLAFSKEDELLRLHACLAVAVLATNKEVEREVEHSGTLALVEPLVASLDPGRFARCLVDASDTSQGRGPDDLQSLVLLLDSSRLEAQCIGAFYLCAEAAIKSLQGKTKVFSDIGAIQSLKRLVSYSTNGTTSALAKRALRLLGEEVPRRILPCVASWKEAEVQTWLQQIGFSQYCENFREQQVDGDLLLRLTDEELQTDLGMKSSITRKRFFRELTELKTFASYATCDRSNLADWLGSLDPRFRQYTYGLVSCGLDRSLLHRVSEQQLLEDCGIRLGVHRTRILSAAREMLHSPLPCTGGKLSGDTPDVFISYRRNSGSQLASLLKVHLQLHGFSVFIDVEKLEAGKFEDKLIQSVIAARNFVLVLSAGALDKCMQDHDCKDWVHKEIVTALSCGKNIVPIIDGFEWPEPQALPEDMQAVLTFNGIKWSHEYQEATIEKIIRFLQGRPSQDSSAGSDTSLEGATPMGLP
The experiment in a line: Inhibition of SARM1 in CD1 mouse DRG cells assessed as inhibition of axon degeneration measured during 6 to 24 hrs by drop culture assay.

Test [6] addresses T2, NAD(+) hydrolase SARM1 (Mus musculus). The test can be described thus: Inhibition of SARM1 in CD1 mouse DRG cells assessed as inhibition of axon degeneration by measuring reduction in NAD+ consumption rate at 5 uM added 30 mins prior to D4-Nam addition and measured 4 hrs post D4-Nam addition by LC-MS/MS analysis.
The target of test [7] is T1, NAD(+) hydrolase SARM1 (Homo sapiens). The test can be described thus: Inhibition of StrepTag-tagged human SARM1 TIR (561 to 724 residues) expressed in HEK293T cells assessed as reduction in NADase activity at 5 uM in presence of NAD+ incubated for 60 mins by LC-MS/MS analysis.
Test [8] concerns the target T2, NAD(+) hydrolase SARM1 (Mus musculus). The test can be described thus: Inhibition of SARM1 in CD1 mouse DRG cells assessed as inhibition of axon degeneration by measuring reduction in NAD+ consumption rate added 30 mins prior to D4-Nam addition and measured 4 hrs post D4-Nam addition by LC-MS/MS analysis.
For test [9] the target is unchanged. The test can be described thus: Inhibition of SARM1 in CD1 mouse DRG cells assessed as inhibition of axon degeneration measured during 6 to 24 hrs by SEM micrography.
Test [10] addresses T1, NAD(+) hydrolase SARM1 (Homo sapiens). The test can be described thus: Inhibition of StrepTag-tagged human SARM1 TIR (561 to 724 residues) expressed in NRK1-HEK293T cells assessed as reduction in NADase activity by measuring ADPR production at 150 uM pre-incubated up to 120 mins before NAD+ addition and further incubated for 60 mins by HPLC analysis. Details: scale not given: the % may be the effect or the level left.

For test [11] the target is unchanged. The experiment in a line: Inhibition of StrepTag-tagged human SARM1 TIR (561 to 724 residues) expressed in NRK1-HEK293T cells assessed as reduction in NADase activity by measuring NAD consumption at 150 uM pre-incubated up to 120 mins before NAD+ addition and further incubated for 60 mins by HPLC analysis relative to control. The arrangement: scale not given: the % may be the effect or the level left.

Test [12] shares this target. The experiment in a line: Inhibition of StrepTag-tagged human SARM1 TIR (561 to 724 residues) expressed in HEK293T cells in presence of NAD+ incubated for 60 mins by chemiluminescence based NAD+ Glo assay.

Each structure is given as a SMILES string. The source made the active and inactive calls. No cut-off for these calls is given here.

Regarding `COc1ccc2[nH]c([S+]([O-])Cc3ncc(C)c(OC)c3C)nc2c1` (stereo unspecified), in test [1], the inhibition entry is “Active”.
As for `NC(=O)C1=CN([C@@H]2O[C@H](COP(=O)(O)OP(=O)(O)OC[C@H]3O[C@@H](n4cnc5c(N)ncnc54)[C@H](OP(=O)(O)O)[C@@H]3O)[C@@H](O)[C@H]2O)C=CC1`, the result in test [2] and in [3] was Active.
Turning to `NC(=O)c1ccc(N)nc1`, the outcome in test [3] was inactive.
As to `NC(=O)C1CCCc2c1[nH]c1ccc(Cl)cc21` (stereo unspecified), the result in test [3] was inactive. In addition, in [4], the inhibition entry is “Active”.
On to `CN(C)c1n/c(=N/Cc2ccco2)ss1`, for which the inhibition entry in test [5], in test [6], in test [7] and in test [9] was “Active” in each case. Also, the inhibition entry in [8] is “Dose-dependent effect”.
With `COc1ccc2[nH]c([S+]([O-])Cc3ncc(C)c(OC)c3C)nc2n1` (stereo unspecified), the inhibition entry in test [1] was “Active”. Further, the results for the Activity in test [10] and in test [11] were < 50% and 50 to 75%, respectively.
Take `O=C1NC(=O)C(=Cc2csc3ccccc23)C(=O)N1`: in [6], the inhibition entry was “Active”.
Same read-out and setting: the same measure for `Cc1ccc2c(c1)c1ccc3c(c1n2C)C(=O)C=CC3=O`: “Active”; for `COc1ccc2c(c1)c1ccc3c(c1n2C)C(=O)C=CC3=O`: “Active”; for `CC1=C(O)C(=O)C=C2C1=CC=C1[C@@]2(C)CC[C@@]2(C)[C@@H]3C[C@](C)(C(=O)O)CC[C@]3(C)CC[C@]12C`: “Active”.
The same measure, in the same setting: the same measure for `CCOC(=O)/C(C#N)=C1\SS/C(=C(/C#N)C(=O)OCC)S1`: “Active”; for `CC1(C)CC[C@]2(C(=O)n3ccnc3)CC[C@]3(C)[C@H](C(=O)C=C4[C@@]5(C)C=C(C#N)C(=O)C(C)(C)[C@@H]5CC[C@]43C)[C@@H]2C1`: “Active”; for `Cc1cc(O)c(-c2cc(O)c(C)cc2O)cc1O`: “Active”.
As to `O=C(c1ccccc1)C1C(c2ccccc2)C1[N+](=O)[O-]` (stereo unspecified), the inhibition result in [6] was “Active”.
As for `Cc1c(OCC(F)(F)F)ccnc1C[S+]([O-])c1nc2ccccc2[nH]1` (stereo unspecified), in test [1], the inhibition entry was “Active”.
As for `CC(=O)c1cccnc1`, in test [3], the result was inactive.
Regarding `O=C1N=C(c2ccccc2)C(c2ccccc2)N1` (stereo unspecified), the inhibition entry in [6] was “Active”.
As for `COc1ccnc(C[S+]([O-])c2nc3cc(OC(F)F)ccc3[nH]2)c1OC` (stereo unspecified), the inhibition result in [1] was “Active”.
For `NC(=S)c1cccnc1`, the result in test [3] was inactive.
With `Cn1c2ccccc2c2ccc3c(c21)C(=O)C=CC3=O`, the inhibition result in [6] is “Active”.
Same read-out and setting: with `Oc1cc(CNC2CCCCC2)c(O)cc1CNC1CCCCC1` the entry was “Active”.
Consider `O=Cc1cccnc1`, for which the outcome in [3] was inactive.
In the case of `CCOc1ccc(NC(=O)C2CCCN(C)C2)cc1` (stereo unspecified), in [6], the inhibition entry was “Active”.
`Cc1cccc2c1c1ccc3c(c1n2C)C(=O)C=CC3=O`: the inhibition result in test [6] is “Active”.
In the case of `Cc1c(OCC(F)(F)F)ccnc1CS(=O)(=O)c1nc2ccccc2[nH]1`, the Activity in test [10] and in test [11] was > 75% in each case.
As for `NC(=O)C1=CN([C@@H]2O[C@H](COP(=O)(O)OP(=O)(O)OC[C@H]3O[C@@H](n4cnc5c4ncn4ccnc54)[C@H](O)[C@@H]3O)[C@@H](O)[C@H]2O)CC=C1`, the outcome in test [3] was inactive. In addition, the inhibition result in test [4] was “Active”.
Consider `COc1cnc2[nH]c([S+]([O-])Cc3ncc(C)c(OC)c3C)nc2c1` (stereo unspecified), for which the values for the Activity in [10] and in [11] were 50 to 75% and > 75%, respectively.
On to `O=[N+]([O-])c1ccc(Sc2cccc[n+]2[O-])c2nonc12`, for which, in test [6], the inhibition entry was “Active”.
Regarding `NC(=O)c1ccccc1`, in [3], the outcome was inactive.
As to `COC(=O)CC1(C(=O)OC)Nc2cc(Cl)c(Cl)cc2S(=O)(=O)N1O` (stereo unspecified), the inhibition result in [6] was “Active”.
With `Cc1c(OCC(F)(F)F)ccnc1CSc1nc2ccccc2[nH]1`, the Activity in test [10] and in [11] was > 75% in each case.
As for `CN(C)c1n/c(=N/c2cccc(Cl)c2)ss1`, the inhibition result in test [6], in [7] and in [12] was “Active” throughout.
Take `O=C1NC(=O)C(=Cc2ccc3ccccc3c2)C(=O)N1`: in test [6], the inhibition result is “Active”.
`COCCCOc1ccnc(C[S+]([O-])c2nc3ccccc3[nH]2)c1C` (stereo unspecified): the inhibition entry in test [1] is “Active”.
As for `COc1ccc2c(c1)nc([S+]([O-])Cc1ncc(C)c(OC)c1C)n2C` (stereo unspecified), the Activity in [10] and in test [11] was > 75% each time.
For `NC(=O)C1=CN([C@@H]2O[C@H](COP(=O)(O)OP(=O)(O)OC[C@H]3O[C@@H](n4cnc5c(=O)[nH]cnc54)[C@H](O)[C@@H]3O)[C@@H](O)[C@H]2O)CC=C1`, the outcome in test [3] was Active.
Regarding `Cc1c(OCC(F)(F)F)ccnc1C[S@@+]([O-])c1nc2ccccc2[nH]1`, the inhibition result in test [1] was “Active”.
`CCN(CC)c1ccc(C=C2C(=O)NC(=S)NC2=O)cc1`: the inhibition result in test [6] was “Active”.
The same measure, in the same setting: with `Cc1ccc([S+]([O-])c2ccc([N+](=O)[O-])c3nonc23)cc1` (stereo unspecified) the entry was “Active”.
Regarding `Cc1cnc(C[S@@+]([O-])c2nc3ccccc3[nH]2)c(C)c1OCC(F)(F)F`, the Activity was < 50% in test [10] and > 75% in test [11].
